Results: US10329317B2, “Quinoline derivative for use in the treatment and prevention of viral infections” (ABIVAX, priority 2015, dated 2019)

Key:
[1] = target: T1, CBC complex (CBP20 and CBP80) (Homo sapiens, UniProt P52298+Q09161); test: UV-induced covalent bridging of purified recombinant CBP20 and CBP80 (SDS-PAGE / Western blot); assay type: binding; details: purified recombinant CBP20 and CBP80, UV light, resolved by SDS-PAGE
T1 construct: made in house
T1 sequence (Q09161 20-790 limits assumed): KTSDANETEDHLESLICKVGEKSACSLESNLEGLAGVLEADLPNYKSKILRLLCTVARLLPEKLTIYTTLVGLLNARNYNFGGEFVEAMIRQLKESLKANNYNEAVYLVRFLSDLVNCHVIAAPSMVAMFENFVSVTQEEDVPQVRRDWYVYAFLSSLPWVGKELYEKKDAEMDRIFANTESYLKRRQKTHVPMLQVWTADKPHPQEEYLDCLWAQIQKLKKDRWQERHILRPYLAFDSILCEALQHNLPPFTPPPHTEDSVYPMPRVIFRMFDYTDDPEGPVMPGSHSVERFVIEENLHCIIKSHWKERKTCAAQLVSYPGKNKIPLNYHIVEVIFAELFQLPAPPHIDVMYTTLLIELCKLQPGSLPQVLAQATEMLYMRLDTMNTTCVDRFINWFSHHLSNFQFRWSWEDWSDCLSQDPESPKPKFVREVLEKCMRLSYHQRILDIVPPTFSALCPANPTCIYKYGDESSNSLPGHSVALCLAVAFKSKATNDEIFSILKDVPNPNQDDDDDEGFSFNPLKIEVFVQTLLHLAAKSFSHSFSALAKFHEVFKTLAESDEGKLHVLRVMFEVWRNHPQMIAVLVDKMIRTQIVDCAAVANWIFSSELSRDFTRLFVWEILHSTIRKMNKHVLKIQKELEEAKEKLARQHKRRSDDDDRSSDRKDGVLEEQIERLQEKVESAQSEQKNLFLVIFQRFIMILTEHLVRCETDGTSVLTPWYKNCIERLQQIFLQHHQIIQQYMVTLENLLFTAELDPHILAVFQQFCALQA
T1 sequence (P52298 1-156): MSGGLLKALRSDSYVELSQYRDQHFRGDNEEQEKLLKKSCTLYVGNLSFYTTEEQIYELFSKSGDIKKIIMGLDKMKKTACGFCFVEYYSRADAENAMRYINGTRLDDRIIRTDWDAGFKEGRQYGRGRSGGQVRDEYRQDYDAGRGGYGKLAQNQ
Procedure: FIG. 1A. Compounds 1 and 2 interact with the CBC complex. Purified recombinant CBP20 and CBP80 proteins were incubated with increasing concentrations of Compound 2 (left panel) or Compound 1 (right panel, Gluc) and treated during 30 min (Compound 1) or 15 min (Compound 2) with UV light. […] Left panel: from left to right, incubation with 0.1 (lane 1), 1 (lane 2), 10 (lane 3) and 50 μM (lane 4) […]. Right panel: from left to right, incubation with 1 (lane 1), 10 (lane 2), 50 (lane 3), 100 μM (lane 4) and 200 μM (lane 5) of Compound 1.
The recombinant CBC complex, comprising CBP20 and CBP80, is prepared according to the protocol which has been described in Worch, R. et al. (Specificity of recognition of mRNA 5′ cap by human nuclear cap-binding complex. RNA 11, 1355-1363 (2005)).
Compound 1 can make covalent binding with purified CBC complex after […] irradiation with UV light at 365 nm.
The same results were obtained with the glucuronidated Compound 1, the more soluble derivative of Compound 2 that is produced as metabolite using human hepatocytes.

[2] = target: T2, Recombinant human CBC with capped RNA substrate (Homo sapiens, UniProt P52298+Q09161); test: Gel-mobility shift assay of CBC binding to capped RNA; details: Compound 1 5-100 μM, Compound 2 5-50 μM, m7GpppG 12 mM
T2 construct: made in house
T2 sequence (Q09161 20-790 limits assumed): T1 sequence (Q09161 20-790 limits assumed)
T2 sequence (P52298 1-156): T1 sequence (P52298 1-156)
Procedure: FIG. 1B. […] Recombinant human CBC was incubated with a capped RNA substrate and analyzed by native gel electrophoresis in order to resolve the different RNA and RNA-protein complexes: free RNA (lane 1), and CBC-RNA complexes (lanes 2-10) in the presence of 12 mM of m7GppG (lanes 10) or 5 μM, 10 μM or 50 μM of Compound 2 (lanes 2-5, respectively) and 5 μM, 10 μM, 50 μM or 100 μM of Compound 1 (lanes 6-9, respectively).
Recombinant human CBC was incubated with a capped RNA substrate in the presence of increasing concentrations of compound 1 or compound 2 or a m(7)GpppG cap analogue and analyzed by native gel electrophoresis in order to resolve the different RNA and RNA-protein complexes according to Mazza et al. (Large-scale induced fit recognition of an m(7)GpppG cap analogue by the human nuclear cap-binding complex. EMBO J. 21, 5548-5557 (2002).

| Compound | covalent bridging between CBP20 and CBP80 after UV irradiation [1] | competition of the complex between CBC and capped RNA [2] |
| --- | --- | --- |
| FC(F)(F)Oc1ccc(Nc2ccc3cccc(Cl)c3n2)cc1 [Compound 2, 8-chloro-N-(4-(trifluoromethoxy)phenyl)quinolin-2-amine] | dose-dependent covalent bridging | no competition |
| Cn1c[n+]([C@@H]2O[C@H](COP(=O)(O)OP(=O)([O-])OP(=O)(O)OC[C@H]3O[C@@H](n4cnc5c(=O)[nH]c(N)nc54)[C@H](O)[C@@H]3O)[C@@H](O)[C@H]2O)c2nc(N)[nH]c(=O)c21 [m^7GpppG, reference compound] | – | competed |
